In the oligonucleotide strings, read from the 5' end, every base follows the letter of its sugar. An asterisk marks phosphorothioate; unmarked linkages are phosphodiester. Other units and linkages are bracketed, terminal groups are in braces. A string of capitals states the bases alone. e = 2'-O-(2-methoxyethyl) (MOE); d = 2'-deoxy (DNA); m = 2'-O-methyl; r = 2'-OH (RNA); {P} = phosphate; f = 2'-fluoro
Tests used:
[1] = tested on: PCSK9 mRNA; assay: In vitro screening of modified dsRNAs targeted to PCSK9 (Table 2b; cell type not given); type: cell-based; conditions: 30 nM siRNA
Experimental: For transfection with siRNA, HuH7, HepG2, or HeLa cells were seeded at a density of 2.0×10^4 cells/well in 96-well plates and transfected directly. Transfection of siRNA (30 nM for single dose screen) was carried out with lipofectamine 2000 (Invitrogen GmbH, Karlsruhe, Germany, cat. No. 11668-019) as described by the manufacturer.
24 hours after transfection HuH7 and HepG2 cells were lysed and PCSK9 mRNA levels were quantified with the Quantigene Explore Kit (Genosprectra, Dumbarton Circle Fremont, USA, cat. No. QG-000-02) according to the protocol. PCSK9 mRNA levels were normalized to GAP-DH mRNA. For each siRNA eight individual datapoints were collected. siRNA duplexes unrelated to PCSK9 gene were used as control. The activity of a given PCSK9 specific siRNA duplex was expressed as percent PCSK9 mRNA concentration in treated cells relative to PCSK9 mRNA concentration in cells treated with the control siRNA duplex.
Tables 1b and 2b (and FIG. 6A) summarize the results and provide examples of in vitro screens in different cell lines at different doses. Silencing of PCSK9 transcript was expressed as percentage of remaining transcript at a given dose.

[2] = tested on: PCSK9 mRNA; assay: PCSK9 siRNA screening in HepG2 cells (lipofectamine 2000 transfection, PCSK9 mRNA by Quantigene, normalized to GAP-DH); type: cell-based, human; conditions: for Mean percent remaining mRNA transcript at siRNA concentration/in cell type 30 nM/HepG2: 30 nM siRNA; for Mean percent remaining mRNA transcript at siRNA concentration/in cell type 100 nM/HepG2: 100 nM siRNA; for Mean percent remaining mRNA transcript at siRNA concentration/in cell type 3 nM/HepG2: 3 nM siRNA
Outline: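 HepG2 cells, grown in MEM with 10% fetal calf serum, antibiotics, non-essential amino acids and sodium pyruvate at 37° C. and 5% CO2, were plated at 2.0×10^4 cells/well in 96-well plates and transfected directly with siRNA using lipofectamine 2000. After 24 hours, cells were lysed and PCSK9 mRNA was measured by Quantigene and normalized to GAP-DH mRNA.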

| Substance | Remaining mRNA in % of controls at siRNA conc. of 30 nM [1] | Mean percent remaining mRNA transcript at siRNA concentration/in cell type 30 nM/HepG2 [2] | further results |
| --- | --- | --- | --- |
| AD-12398: modified dsRNA, SEQ ID NO:1491/1492 (chain 1 fGmCfCmUfGmGfAmGfUmUfUmAfUmUfCmGfGmAfAdT*dT; chain 2 {P}-fUfUfCfCrGrArAfUrArArAfCfUfCfCrArGrGfC*fC*fU) | 11% |  |  |
| AD-12348: modified dsRNA, SEQ ID NO:1395/1396 (chain 1 rGmCmCmUrGrGrArGmUmUmUrAmUmUmCrGrGrArAdT*dT; chain 2 {P}-mUfUmCfCmGfAmAfUmAfAmAfCmUfCmCfAmGfGmCdT*dT) | 8% |  |  |
| AD-12365: modified dsRNA, SEQ ID NO:1427/1428 (chain 1 GCCUGGAGUUUAUUCGGAATT; chain 2 rUrUrCrCrGrArAmUrArArArCrUrCmCrArGrGrCdT*dT; chain 1: sugars from the 5' end rerererererererererdd, linkages o19 s1 (s phosphorothioate, o phosphodiester), methylation of C and T or U not given here) | 18% |  |  |
| AD-12379: modified dsRNA, SEQ ID NO:1453/1454 (chain 1 rGfCfCfUrGrGrArGfUfUfUrAfUfUfCrGrGrArAdT*dT; chain 2 rUrUrCrCrGrArArUrArArArCrUrCrCrArGrGrC*mC*mU) | 6% |  |  |
| AD-12041: modified dsRNA, SEQ ID NO:1317/1318 (chain 1 rGmCmCmUrGrGrArGmUmUmUrAmUmUmCrGrGrArAdT*dT; chain 2 rUrUrCmCrGrArArUrArArArCrUrCrCrArGrGrCdT*dT) | 11% |  |  |
| AD-12386: modified dsRNA, SEQ ID NO:1467/1468 (chain 1 fGmCfCmUfGmGfAmGfUmUfUmAfUmUfCmGfGmAfA; chain 2 {P}-fUfUfCfCrGrArAfUrArArAfCfUfCfCrArGrGfCdT*dT) | 11% |  |  |
| AD-12354: modified dsRNA, SEQ ID NO:1405/1406 (chain 1 fGmCfCmUfGmGfAmGfUmUfUmAfUmUfCmGfGmAfA; chain 2 rUrUrCrCrGrArArUrArArArCrUrCrCrArGrGrC*mC*mU) | 11% |  |  |
| AD-12359: modified dsRNA, SEQ ID NO:1415/1416 (chain 1 GCCUGGAGUUUAUUCGGAA; chain 2 {P}-mUfUmCfCmGfAmAfUmAfAmAfCmUfCmCfAmGfGmC*fC*mU; chain 1: sugars from the 5' end rererererererererer, all phosphodiester, methylation of C and T or U not given here) | 30% |  |  |
| AD-12393: modified dsRNA, SEQ ID NO:1481/1482 (chain 1 rGfCfCfUrGrGrArGrGfUfUfUrAfUfUfCrGrGrArA; chain 2 rUrUrCrCrGrArAmUrArArArCrUrCmCrArGrGrCdT*dT) | 17% |  |  |
| AD-12067: modified dsRNA, SEQ ID NO:1369/1370 (chain 1 GCCUGGNAGUUUAUUCGGAATT; chain 2 rUrUrCrCrGrArArUrArArArCrUrCrCrArGrGrCdT*dT; chain 1: chemistry not given here) | 17% |  |  |
| AD-12366: modified dsRNA, SEQ ID NO:1429/1430 (chain 1 GCCUGGAGUUUAUUCGGAATT; chain 2 rUrUrCrCrGrArArUrArArArCrUrCrCrArGrGrCdT*dT; chain 1: sugars from the 5' end rerererererererererdd, linkages o19 s1 (s phosphorothioate, o phosphodiester), methylation of C and T or U not given here) | 23% |  |  |
| AD-12378: modified dsRNA, SEQ ID NO:1451/1452 (chain 1 rGfCfCfUrGrGrArGfUfUfUrAfUfUfCrGrGrArAdT*dT; chain 2 rUrUrCrCrGmAmArUrAmAmArCrUrCrCrAmGmGmC*mC*mU) | 6% |  |  |
| AD-12371: modified dsRNA, SEQ ID NO:1439/1440 (chain 1 GCCUGGAGUUUAUUCGGAATT; chain 2 {P}-fUfUfCfCrGrArAfUrArArAfCfUfCfCrArGrGfC*fC*fU; chain 1: DNA at T, 2'-MOE at CU, RNA at AG, linkages o19 s1 (s phosphorothioate, o phosphodiester), methylation of C and T or U not given here) | 60% |  |  |
| AD-9704: PCSK9 siRNA (sense mCrAmUmUmUrAmUmCmUmUmUmUrGrGrGmUmCmUrGdT*dT; antisense mCrArGrArCrCmCrArArArArGrAmUrArArArUrGdT*dT) |  | 111% |  |
| AD-9619: PCSK9 siRNA (sense rUrCrArGrGrArGrCrCrGrGrGrArCrGrUrCrArGdT*dT; antisense rCrUrGrArCrGrUrCrCrCrGrGrCrUrCrCrUrGrAdT*dT) |  | 61% | Mean percent remaining mRNA transcript at siRNA concentration/in cell type 100 nM/HepG2 [2]: 42% |
| AD-9584: PCSK9 siRNA (sense rCrCrCrUrGrGrCrGrGrGrUrGrGrGrUrArCrArGdT*dT; antisense rCrUrGrUrArCrCrCrArCrCrCrGrCrCrArGrGrGdT*dT) |  | 68% | Mean percent remaining mRNA transcript at siRNA concentration/in cell type 100 nM/HepG2 [2]: 52% |
| AD-9593: PCSK9 siRNA (sense rCrArGrGrGrUrCrArUrGrGrUrCrArCrCrGrArCdT*dT; antisense rGrUrCrGrGrUrGrArCrCrArUrGrArCrCrCrUrGdT*dT) |  | 55% |  |
| AD-9600: PCSK9 siRNA (sense rGrUrCrGrUrGrCrUrGrGrUrCrArCrCrGrCrUrGdT*dT; antisense rCrArGrCrGrGrUrGrArCrCrArGrCrArCrGrArCdT*dT) |  | 112% |  |
| AD-9731: PCSK9 siRNA (sense mUrGrGmUrGrArArGrAmUrGrArGmUrGrGmCrGrAdT*dT; antisense rUrCrGrCmCrArCrUmCrArUrCrUrUmCrArCmCrAdT*dT) |  | 31% | IC50 [2]: 0.32 nM; Mean percent remaining mRNA transcript at siRNA concentration/in cell type 3 nM/HepG2 [2]: 31% |
| AD-9711: PCSK9 siRNA (sense mCrGrGmCrArAmCmUmUmCmCrGrGrGrAmCrGrAmUdT*dT; antisense rArUrCrGrUrCrCrCrGrGrArArGrUrUrGrCrCrGdT*dT) |  | 122% |  |
| AD-9722: PCSK9 siRNA (sense rGrArArGrAmUrGrArGmUrGrGmCrGrAmCmCmUrGdT*dT; antisense mCrArGrGrUrCrGrCmCrArCrUmCrArUrCrUrUrCdT*dT) |  | 76% |  |
| AD-9742: PCSK9 siRNA (sense rArGmCrAmCmCmUrGmCmUmUmUrGmUrGmUmCrAmCdT*dT; antisense rGrUrGrAmCrAmCrArArArGmCrArGrGrUrGrCrUdT*dT) |  | 127% |  |
| AD-9733: PCSK9 siRNA (sense rGrGrArGmCmUrGrGmUrGmCmUrArGmCmCmUmUrGdT*dT; antisense mCrArArGrGrCmUrArGmCrArCmCrArGrCrUrCrCdT*dT) |  | 78% | Mean percent remaining mRNA transcript at siRNA concentration/in cell type 3 nM/HepG2 [2]: 73% |
| AD-9668: PCSK9 siRNA (sense rAmUmCrGrArGrGrGmCrArGrGrGmUmCrAmUrGrGdT*dT; antisense rCmCrArUrGrArCrCrCrUrGrCrCrCrUrCrGrArUdT*dT) |  | 92% |  |
| AD-9585: PCSK9 siRNA (sense rCrGrGrCrArArCrUrUrCrCrGrGrGrArCrGrArUdT*dT; antisense rArUrCrGrUrCrCrCrGrGrArArGrUrUrGrCrCrGdT*dT) |  | 83% |  |
| AD-9699: PCSK9 siRNA (sense rAmUrGrGmUmCrAmCmCrGrAmCmUmUmCrGrArGrAdT*dT; antisense rUrCrUrCrGrArArGrUrCrGrGrUrGrArCmCrArUdT*dT) |  | 32% | IC50 [2]: 2.5 nM; Mean percent remaining mRNA transcript at siRNA concentration/in cell type 3 nM/HepG2 [2]: 36% |
| AD-9610: PCSK9 siRNA (sense rArGrGrUrGrUrArUrCrUrCrCrUrArGrArCrArCdT*dT; antisense rGrUrGrUrCrUrArGrGrArGrArUrArCrArCrCrUdT*dT) |  | 36% | IC50 [2]: 0.04 nM; Mean percent remaining mRNA transcript at siRNA concentration/in cell type 3 nM/HepG2 [2]: 34% |
| AD-9705: PCSK9 siRNA (sense rAmUmCrGrArGrGrArGrGrAmCmUmCmCmUmCmUrGdT*dT; antisense mCrArGrArGrGrArGrUrCrCrUrCrCrUrCrGrArUdT*dT) |  | 81% |  |
| AD-9612: PCSK9 siRNA (sense rArCrCrArCrCrGrGrGrArArArUrCrGrArGrGrGdT*dT; antisense rCrCrCrUrCrGrArUrUrUrCrCrCrGrGrUrGrGrUdT*dT) |  | 122% |  |
| AD-9719: PCSK9 siRNA (sense mCrArGrGrGmUmCrAmUrGrGmUmCrAmCmCrGrAmCdT*dT; antisense rGrUrCrGrGrUrGrArCmCrArUrGrArCrCrCrUrGdT*dT) |  | 115% |  |

— US20120016009A1, “Optimized Methods For Delivery Of DSRNA Targeting The PCSK9 Gene” (priority 2008, published 2012)
